Data taken from patent US8748572B2, “RNase a peptides, fragments and uses thereof” (priority 2006, dated 2014).

Legend:
E. coli DH5α = experiment: bactericidal colony-forming assay, E. coli; type: cell-based, Escherichia coli; settings: free synthetic peptide; for LD99: E. coli
Experimental: FIGS. 5 A & B are graphs showing the bactericidal activity of rRNases A-1 and A-2. In panel (A) E. coli DH5α and in panel (B) S. aureus 502A were re-suspended in 100 mM sodium phosphate buffer, pH 7.4, and incubated with the indicated concentrations of chicken leukocyte RNase A-1 (open squares) and A-2 (closed circles) for 4 h at 37° C., plated on RNase-free LB agar, and grown overnight for colony counts.
RNase A polypeptides and fragments according to the invention that have bactericidal activity are particularly preferred for use in the treatment methods of the invention. The bactericidal and bacteriostatic activity of a particular RNase A polypeptides or fragments can be assessed by known protocols, such as that described in the methods section and the following described protocol, herein referred to as “a standard bacterial colony formation assay.” Bactericidal assays are well-described in the art, and are performed as described previously, and as exemplified in Examples 3-6. Briefly, an aliquot from a single bacterial colony overnight culture grown in Luria-Beitani (LB) broth is diluted 1:100 in sodium phosphate, pH 7.4, collected by centrifugation, and resuspended in sodium phosphate, pH 7.4. An aliquot of bacteria in buffer are incubated for 4 hr at 37° C. with recombinant protein or peptide at concentrations indicated, or diluent control and were then diluted 10, 100, or 1000-fold prior to plating on LB agar for overnight growth for colony counts.
Next, the bactericidal activity of chicken leukocyte RNases were examined using a colony-forming assay as previously described for eosinophil cationic protein [28]. […] E. coli was more susceptible to the bactericidal activity of leukocyte rRNase A-2 than was S. aureus, as 5 μM rRNase A-2 reduced the colony count of E. coli 10^7-fold, while reducing the colony count of S. aureus, only 100-fold. Recombinant RNase A-1 had no effect on colony number of E. coli or S. aureus concentrations up to and including […].
Bactericidal assays were performed as described previously with modifications. Briefly, 100 microliters from a single bacterial colony overnight culture grown in Luria-Bertani (LB) broth was diluted 1:100 in 100 mM sodium phosphate, pH 7.4, collected by centrifugation, and resuspended in 1 ml sodium phosphate, pH 7.4. Ten microliters of bacteria in buffer are incubated for 4 hr at 37° C. with 10 microliters recombinant protein or peptide at concentrations indicated, or diluent control and were then diluted 10, 100, or 1000-fold prior to plating on LB agar for overnight growth for colony counts. All points were determined in triplicate.

isoelectric point = type: physicochemical
[1] = test system: Salmonella enterica serovar pullorum; experiment: bactericidal assay on natural pathogen; type: cell-based; settings: free peptide
Source text: FIG. 11 is a graph showing that the domain III peptide is bactericidal for S. enterica serovar pullorum which is a natural pathogen of domestic poultry. At the highest concentration tested, 100 micromolar, RNase A-2 domain III reduces the colony count from 100-1000 fold (2-3 logs).
The bactericidal actions of the A-2 domain sequences on natural pathogens was explored. The bactericidal activity of the leukocyte RNase A-2 domain III peptide on the natural pathogen Salmonella enterica serovar pullorum was determined using the bactericidal assays as previously described. S. enterica is a gram negative pathogen isolated initially from domestic poultry and is as such a natural target pathogen for a bactericidal agent isolated from chicken granulocytes. […] At the highest concentration tested, 100 micromolar, RNase A-2 domain III reduces the colony count from 100-1000 fold (2-3 logs). Thus, the A-2 domain sequences are useful bactericidal agents against natural pathogens.
Bactericidal assays were performed as described previously with modifications. Briefly, 100 microliters from a single bacterial colony overnight culture grown in Luria-Bertani (LB) broth was diluted 1:100 in 100 mM sodium phosphate, pH 7.4, collected by centrifugation, and resuspended in 1 ml sodium phosphate, pH 7.4. […] All points were determined in triplicate.

[2] = test system: Gallus gallus leukocyte RNases; experiment: RNase activity with human placental RNase inhibitor; type: biochemical; settings: preincubation with 200 U hPRI, yeast tRNA substrate, pH 7.0
Experimental: FIGS. 4 A-D are graphs showing the ribonucleolytic activity of recombinant leukocyte RNases. (A) is a graph showing the optimum pH for RNase activity. Enzymatic activity was determined with 50 pmol rRNase A-1 (open squares) and rRNase A-2 (closed circles) that was incubated with 250 μg/ml yeast tRNA in 40 mM sodium phosphate buffer at the pHs indicated. Measurements of A260 per time were converted to pmol/s as described in reference 28 and Methods. (B) is a graph showing the initial rates for RNase activity. Enzymatic activity was determined as described in (A) with 40 mM sodium phosphate buffer, pH 7.0. (C) is a graph showing the substrate preference for RNase activity. […] A260 was measured after precipitation of undigested RNA at each of the time points indicated. […] RNase activity was measured with […] of bovine pancreatic RNase (left) or […] rRNase A-1 and rRNase A-2 (right) with 250 μg/ml of yeast tRNA as substrate with (+) or without (−) 200 U human placental RNase inhibitor (hPR1) in 40 mM sodium phosphate buffer, pH 7.0. […]
The ribonuclease (RNase) assay with yeast tRNA substrate has been described in detail elsewhere. […] In experiments in which the pH optimum was to be determined, 40 mM sodium phosphate buffers of pH 5.0, 5.5, 6.0, 6.5, 7.4 or 8.0 were used instead of the buffer of pH 7.0. […]

Molecule	bactericidal activity of free peptide against E. coli (in words) (E. coli DH5α)	isoelectric point (pI) (isoelectric point)	bactericidal activity (in words) [1]	LD99 (E. coli DH5α)	inhibition of RNase activity [2]
TRIRTRFHT [scrambled domain II peptide]	reduced the colony count of E. coli to the same degree as the wild type A-2 domain II peptide				
RYSGNQFNRRVRVGCRG [A-2 domain III peptide]	active	12.3	bactericidal	10 µM	
TTRRHFRIT [A-2 domain II peptide]	reduced colony count of E. coli in a dose-dependent manner	12.8		200 µM	
SYTGNQFNHRVRVGCWG [A-1 domain III]	no significant activity	9.9			
hPRI: human placental RNase inhibitor (Boehringer Mannheim) (protein) SLDIQSLDIQCEELSDARWAELLPLLQQCQVVRLDDCGLTEARCKDISSALRVNPALAELNLRSNELGDVGVHCVLQGLQTPSCKIQKLSLQNCCLTGAGCGVLSSTLRTLPTLQELHLSDNLLGDAGLQLLCEGLLDPQCRLEKLQLEYCSLSAASCEPLASVLRAKPDFKELTVSNNDINEAGVRVLCQGLKDSPCQLEALKLESCGVTSDNCRDLCGIVASKASLRELALGSNKLGDVGMAELCPGLLHPSSRLRTLWIWECGITAKGCGDLCRVLRAKESLKELSLAGNELGDEGARLLCETLLEPGCQLESLWVKSCSFTAACCSHFSSVLAQNRFLLELQISNNRLEDAGVRELCQGLGQPGSVLRVLWLADCDVSDSSCSSLAATLLANHSLRELDLSNNCLGDAGILQLVESVRQPGCLLEQLVLYDIYWSEEMEDRLQALEKDKPSLRVIS					completely inhibited
